Laboratory results published in patent US20060173064A1, “(-)-1-(3,4-Dichlorophenyl)-3-azabi cyclo[3.1.0]hexane, compositions thereof, and uses for treating alcohol-related disorders” (priority 2001, published 2006).
Marks after values point to notes of the source that are not given here.

How the values were obtained:
[1] = target: T1, serotonin transporter (serotonin uptake site), human platelet membranes (Homo sapiens, UniProt P31645); test: Serotonin transporter binding assay ([3H]citalopram); details: summary of Table 3; hydrochloride
T1 construct: The receptor source was human platelet membranes; from tissue; host or cells: human platelets (membranes)
T1 sequence (P31645 whole entry): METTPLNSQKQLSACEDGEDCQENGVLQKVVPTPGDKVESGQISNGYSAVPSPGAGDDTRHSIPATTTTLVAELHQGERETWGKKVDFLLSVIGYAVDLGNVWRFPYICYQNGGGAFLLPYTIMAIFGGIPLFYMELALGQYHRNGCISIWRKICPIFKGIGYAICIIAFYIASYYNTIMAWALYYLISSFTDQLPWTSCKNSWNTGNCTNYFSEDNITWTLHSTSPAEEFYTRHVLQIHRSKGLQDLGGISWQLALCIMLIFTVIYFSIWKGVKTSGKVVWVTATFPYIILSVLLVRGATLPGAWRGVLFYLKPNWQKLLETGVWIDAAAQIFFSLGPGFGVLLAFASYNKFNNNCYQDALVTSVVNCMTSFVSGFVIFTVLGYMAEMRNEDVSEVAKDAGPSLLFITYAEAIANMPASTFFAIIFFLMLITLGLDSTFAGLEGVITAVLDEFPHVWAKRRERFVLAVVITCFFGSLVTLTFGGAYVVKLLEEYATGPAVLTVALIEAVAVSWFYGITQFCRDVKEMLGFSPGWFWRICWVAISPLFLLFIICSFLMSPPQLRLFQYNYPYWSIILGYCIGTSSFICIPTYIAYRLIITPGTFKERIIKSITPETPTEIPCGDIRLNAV
Procedure: Reactions were carried out in 50 mM TRIS-HCl (pH 7.4), containing 120 mM NaCl and 5 mM KCl and at 25° C. for one hour. The reaction was terminated by rapid vacuum filtration onto glass fiber filters. Radioactivity trapped in the filters was determined and compared to control values in order to ascertain the interactions of the test compound with the serotonin uptake site.

[2] = target: hSERT (recombinant human serotonin transporter) (Homo sapiens, UniProt P31645); test: Inhibition of [3H]5-HT uptake in HEK-hSERT cells; details: (−)-enantiomer versus the racemate
hSERT (recombinant human serotonin transporter), sequence (P31645 whole entry): as above

[3] = target: norepinephrine transporter (norepinephrine uptake site), rat forebrain membranes (Rattus norvegicus, UniProt Q63380); details: Table 2; hydrochloride
norepinephrine transporter (norepinephrine uptake site), rat forebrain membranes, sequence (Q63380 1-617): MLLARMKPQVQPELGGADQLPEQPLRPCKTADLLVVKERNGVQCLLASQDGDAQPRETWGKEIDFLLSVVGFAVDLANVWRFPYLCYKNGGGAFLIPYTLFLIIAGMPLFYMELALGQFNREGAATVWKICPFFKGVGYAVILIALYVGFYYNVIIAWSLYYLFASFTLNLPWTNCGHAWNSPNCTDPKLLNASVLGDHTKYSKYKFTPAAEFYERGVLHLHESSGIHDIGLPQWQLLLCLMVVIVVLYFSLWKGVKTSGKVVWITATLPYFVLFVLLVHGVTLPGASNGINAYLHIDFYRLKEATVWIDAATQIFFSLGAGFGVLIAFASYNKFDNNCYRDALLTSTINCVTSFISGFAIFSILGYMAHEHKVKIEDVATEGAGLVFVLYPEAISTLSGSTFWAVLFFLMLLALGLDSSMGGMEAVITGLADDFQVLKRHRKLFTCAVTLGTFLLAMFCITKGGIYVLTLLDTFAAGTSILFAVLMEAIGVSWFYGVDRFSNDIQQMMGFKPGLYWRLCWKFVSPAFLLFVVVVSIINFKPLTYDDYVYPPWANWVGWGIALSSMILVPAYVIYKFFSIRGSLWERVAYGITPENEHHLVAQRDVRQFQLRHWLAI
Procedure: The norepinephrine transporter binding assay was performed according to the methods described in Raisman et al., 1982, Eur. J. Pharmacol. 78:345-351 and Langer et al., 1981, Eur. J. Pharmacol. 72:423. […] Reactions were carried out in 50 mM TRIS-HCI (pH 7.4), containing 300 mM NaCl and 50 mM KCl and at 0° C. to 4° C. for four hours. The reaction was terminated by rapid vacuum filtration onto glass fiber filters. Radioactivity trapped in the filters was determined and compared to control values in order to ascertain the interactions of the test compound with the norepinephrine uptake site.

[4] = target: T2, dopamine transporter (dopamine uptake site), guinea pig striatal membranes (Cavia porcellus, UniProt H0WCX4); test: Dopamine transporter binding assay ([3H]WIN 35,428); details: summary of Table 1
T2 construct: The receptor source was guinea pig striatal membranes; from tissue; host or cells: guinea pig striatum (membranes)
T2 sequence (H0WCX4 1-619): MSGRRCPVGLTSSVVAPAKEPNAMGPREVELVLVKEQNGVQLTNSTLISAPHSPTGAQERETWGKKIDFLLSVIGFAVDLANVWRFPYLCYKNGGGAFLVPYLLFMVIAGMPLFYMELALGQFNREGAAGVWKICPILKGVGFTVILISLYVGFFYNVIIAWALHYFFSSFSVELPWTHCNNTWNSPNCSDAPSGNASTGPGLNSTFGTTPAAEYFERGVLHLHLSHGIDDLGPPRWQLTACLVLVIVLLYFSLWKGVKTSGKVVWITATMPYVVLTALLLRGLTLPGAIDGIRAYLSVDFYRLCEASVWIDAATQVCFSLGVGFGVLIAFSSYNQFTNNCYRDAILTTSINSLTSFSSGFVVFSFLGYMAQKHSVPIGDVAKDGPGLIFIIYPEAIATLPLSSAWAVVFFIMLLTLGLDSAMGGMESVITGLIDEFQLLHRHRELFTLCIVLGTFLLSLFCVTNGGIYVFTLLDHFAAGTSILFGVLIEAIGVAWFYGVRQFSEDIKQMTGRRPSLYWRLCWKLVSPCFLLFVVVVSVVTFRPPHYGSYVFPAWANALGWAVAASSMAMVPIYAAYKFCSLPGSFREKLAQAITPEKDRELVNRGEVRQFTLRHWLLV
Procedure: The dopamine uptake transporter binding assay was performed according to the methods described in Madras et al., 1989, Mol. Pharmacol. 36(4):518-524 and Javitch et al., 1984, Mol. Pharmacol. 26(1):35-44. […] Reactions were carried out in 50 mM TRIS-HCI (pH 7.4), containing 120 mM NaCl and at 0° C. to 4° C. for two hours. The reaction was terminated by rapid vacuum filtration onto glass fiber filters. Radioactivity trapped in the filters was determined and compared to control values in order to ascertain the interactions of the test compound with the dopamine uptake site.

male mHEP rat = test: Volitional consumption of ethanol in the HEP (high ethanol preferring) rat; assay type: in vivo; details: for Ethanol Consumption, Mean ± s.e.m., pre-: three-day pre-treatment period (baseline); for Ethanol Consumption, Mean ± s.e.m., pre- / Ethanol Consumption, Mean ± s.e.m., during / Ethanol Consumption, Mean ± s.e.m., post-: male mHEP rat; for Ethanol Consumption, Mean ± s.e.m., during: during three days of injections; for Ethanol Consumption, Mean ± s.e.m., post-: three-day post-treatment period
Procedure: (§1) The study described here was performed using procedures modified from previous reports (Myers R D et al., Genetics of alcoholism: Rapid development of a new high ethanol preferring (HEP) strain of female and male rats, Alcohol 16:343-357, 1998; […] et al., Effects of NMDA glutamate receptor antagonist drugs on the consumption of ethanol by a genetic drinking rat, Brain Res. Bull 64:279-284, 2004). Briefly, subject male rats were taken from the selectively bred Myers' high ethanol preferring (MHEP) line (Myers et al., Alcohol 16:343-357, 1998), which drink copious amounts of ethanol, even in the presence of palatable alternatives. These rats were subjected to an ethanol preference selection protocol, 3% to 30% during a 10-day “step up” procedure that ensures the maximum amount of drinking at each rat's desired ethanol concentration, with the proportion of ethanol to total fluid consumption of approximately 50%. After the rats were selected and drinking a fixed concentration of ethanol, they were subjected to a three-day baseline ethanol consumption period. This was followed by a three-day period of test drug administration (IP), then a three-day post-treatment period. During this entire study, the following parameters were measured on a daily basis: volume of water consumed; volume of ethanol solution consumed; weight of food consumed; and rat body weight. […] Doses were calculated as the free base form of each drug. Once drinking stabilized to baseline levels post-treatment, a different dose of drug was administered. […] The order of drug doses or vehicle (0.9% saline) was set up in a counter-balanced design. The data were averaged for each period for each rat then grouped and analyzed by one-way repeated measures ANOVA and Tukey's post-hoc analysis.

[5] = Body weight of the mHEP rat in the ethanol study; assay type: in vivo; details: for Bodyweight, Mean ± s.e.m., pre-: three-day pre-treatment period (baseline); for Bodyweight, Mean ± s.e.m., pre- / Bodyweight, Mean ± s.e.m., during / Bodyweight, Mean ± s.e.m., post-: male mHEP rat; for Bodyweight, Mean ± s.e.m., during: during three days of injections; for Bodyweight, Mean ± s.e.m., post-: three-day post-treatment period
Procedure: as §1

Cl.Clc1ccc([C@@]23CNC[C@@H]2C3)cc1Cl (single isomer, unassigned) [(−)-1-(3,4-dichlorophenyl)-3-azabicyclo[3.1.0]hexane HCl] [(−)-1-(3,4-dichlorophenyl)-3-azabicyclo[3.1.0]hexane hydrochloride]
affinity for the serotonin uptake site (in words) [1]: no measurable affinity
difference in affinity, uptake at the serotonin transporter [2]: 9.6 fold
affinity for the norepinephrine uptake site (in words) [3]: no measurable affinity

Cl.Clc1ccc([C@@]23CNC[C@@H]2C3)cc1Cl (single isomer, unassigned) [(−)-1-(3,4-dichlorophenyl)-3-azabicyclo[3.1.0]hexane hydrochloride]
affinity for the dopamine uptake site (in words) [4]: have affinity
Ethanol Consumption, Mean ± s.e.m., pre- (male mHEP rat; 2.5 mg/kg b.i.d. IP group): 5.39 ± 0.89 g ethanol/kg/day
Ethanol Consumption, Mean ± s.e.m., during (male mHEP rat; 2.5 mg/kg b.i.d. IP): 4.32 ± 0.69 g ethanol/kg/day
Ethanol Consumption, Mean ± s.e.m., post- (male mHEP rat; 2.5 mg/kg b.i.d. IP): 5.79 ± 0.86^a g ethanol/kg/day
Ethanol Consumption, Mean ± s.e.m., pre- (male mHEP rat; 5.0 mg/kg b.i.d. IP group): 6.00 ± 0.59 g ethanol/kg/day
Ethanol Consumption, Mean ± s.e.m., during (male mHEP rat; 5.0 mg/kg b.i.d. IP): 4.33 ± 0.62 g ethanol/kg/day
Ethanol Consumption, Mean ± s.e.m., post- (male mHEP rat; 5.0 mg/kg b.i.d. IP): 5.66 ± 0.64 g ethanol/kg/day
Ethanol Consumption, Mean ± s.e.m., pre- (male mHEP rat; 10.0 mg/kg b.i.d. IP group): 6.77 ± 0.51 g ethanol/kg/day
Ethanol Consumption, Mean ± s.e.m., during (male mHEP rat; 10.0 mg/kg b.i.d. IP): 3.50 ± 0.45 g ethanol/kg/day
Ethanol Consumption, Mean ± s.e.m., post- (male mHEP rat; 10.0 mg/kg b.i.d. IP): 4.15 ± 0.61 g ethanol/kg/day
effect on ethanol consumption during the post-treatment period (in words) (male mHEP rat; 10 mg/kg b.i.d., post-treatment period): significant carry over effect
Ethanol Consumption, Mean ± s.e.m., pre- (male mHEP rat; 20.0 mg/kg b.i.d. IP group): 5.26 ± 0.49 g ethanol/kg/day
Ethanol Consumption, Mean ± s.e.m., during (male mHEP rat; 20.0 mg/kg b.i.d. IP): 1.80 ± 0.28 g ethanol/kg/day
Ethanol Consumption, Mean ± s.e.m., post- (male mHEP rat; 20.0 mg/kg b.i.d. IP): 2.89 ± 0.45 g ethanol/kg/day
decrease in the proportion of alcohol consumed (volume of ethanol / total volume of ethanol solution and water) (male mHEP rat; 20 mg/kg b.i.d., after treatment): 41%
decrease in the proportion of alcohol consumed (volume of ethanol / total volume of ethanol solution and water) (male mHEP rat; 20 mg/kg b.i.d., during treatment): 62.3%
ethanol consumption depressed compared to the pre-treatment period (male mHEP rat; 20 mg/kg b.i.d., post-treatment period): 55.1%
decrease in ethanol consumption compared to the pre-treatment period (male mHEP rat; 20 mg/kg b.i.d., treatment period): 65.8%
amount of ethanol consumed (in words) (male mHEP rat; across doses, mHEP rat): strong dose-dependent decrease in consumption
volitional consumption of ethanol (in words) (male mHEP rat; dose range of 5.0 to 20 mg/kg b.i.d.): significantly reduced
proportion of ethanol consumed (in words) (male mHEP rat; mHEP rat): strong decrease
Bodyweight, Mean ± s.e.m., pre- ([5]; 2.5 mg/kg b.i.d. IP group): 0.369 ± 0.019 kg
Bodyweight, Mean ± s.e.m., during ([5]; 2.5 mg/kg b.i.d. IP): 0.372 ± 0.019 kg
Bodyweight, Mean ± s.e.m., post- ([5]; 2.5 mg/kg b.i.d. IP): 0.373 ± 0.019 kg
Bodyweight, Mean ± s.e.m., pre- ([5]; 5.0 mg/kg b.i.d. IP group): 0.392 ± 0.009 kg
Bodyweight, Mean ± s.e.m., during ([5]; 5.0 mg/kg b.i.d. IP): 0.394 ± 0.009 kg
Bodyweight, Mean ± s.e.m., post- ([5]; 5.0 mg/kg b.i.d. IP): 0.394 ± 0.007 kg
Bodyweight, Mean ± s.e.m., pre- ([5]; 10.0 mg/kg b.i.d. IP group): 0.381 ± 0.028 kg
Bodyweight, Mean ± s.e.m., during ([5]; 10.0 mg/kg b.i.d. IP): 0.381 ± 0.028 kg
Bodyweight, Mean ± s.e.m., post- ([5]; 10.0 mg/kg b.i.d. IP): 0.382 ± 0.028 kg
Bodyweight, Mean ± s.e.m., pre- ([5]; 20.0 mg/kg b.i.d. IP group): 0.421 ± 0.015 kg
Bodyweight, Mean ± s.e.m., during ([5]; 20.0 mg/kg b.i.d. IP): 0.423 ± 0.015 kg
Bodyweight, Mean ± s.e.m., post- ([5]; 20.0 mg/kg b.i.d. IP): 0.418 ± 0.015^a kg
body weight (in words) ([5]; treated rats, as expected for rats of this age): small increases in body weight

Cl.Clc1ccc([C@@]23CNC[C@@H]2C3)cc1Cl (single isomer, unassigned) [(+)-1-(3,4-dichlorophenyl)-3-azabicyclo[3.1.0]hexane HCl] [(+)-1-(3,4-dichlorophenyl)-3-azabicyclo[3.1.0]hexane hydrochloride, reference compound]
affinity for the serotonin uptake site (in words) [1]: has affinity
affinity for the norepinephrine uptake site (in words) [3]: has affinity

Cl.Clc1ccc([C@@]23CNC[C@@H]2C3)cc1Cl (single isomer, unassigned) [(+)-1-(3,4-dichlorophenyl)-3-azabicyclo[3.1.0]hexane hydrochloride, reference compound]
affinity for the dopamine uptake site (in words) [4]: have affinity
